Reference: patent US20240059719A1, “GOLD COMPLEXES AS ANTICANCER AGENT” (King Saud University, priority 2023, published 2024)

Assays:
Format in all cases: cell-based
[1] = test system: MCF-7 cells; assay: Intracellular ATP analysis (colorimetric ATP assay kit); conditions: 0-100 μM, 12 h
Experimental: The intracellular ATP levels were determined after the exposure of PBTDG and erlotinib (0-100 μM) to MCF-7 cells for 12 h using a colorimetric ATP assay kit (Sigma-Aldrich, USA) according to the manufacturer instructions. The unknown concentrations of the test samples were calculated using the linear standard curve generated from the concentration of 0-12 nmole ATP. […]

[2] = test system: MCF-7 breast cancer cells; assay: MTT cell viability analysis (cytotoxicity); conditions: Homo sapiens, MCF7, MCF-7 cells, 24 hours treatment
Experimental: MTT (3-(4,5-dimethylthiazol-2-yl)-2,5-diphenyltetrazolium bromide) assay was used for cell viability analysis. MCF-7 breast cancer cells were seeded in a cell culture plate (96-well) at 10^4 cells per well in 200 μl of Dulbecco's modified Eagle medium (DMEM). […] MTT solution (20 μl of 5 mg/mL) was added to each well of the micro plate, which were then incubated in a CO2 incubator at 37° C. for 3 hours. After incubation, the culture medium was removed and 100 μL of isopropanol were added to each well of the micro plate and the absorbance was recorded at 570 nm against reagent blank. The cell viability was calculated using the formula:
Cell viability %=100*(Absorbance sample)/(Absorbance blank)

[3] = test system: MCF-7 cells; assay: Reactive oxygen species analysis (Muse Oxidative Stress Kit, flow cytometry); conditions: 24 h
Experimental: For the analysis of reactive oxygen species (ROS), MCF-7 cells were seeded ([…]) in a 6-well plate and allowed to grow for 24 h at 37° C. under the environment of 5% CO2 and 95% humidity. […] DMS( )served as a negative control. The final DMSO concentration in each well was less than 0.1%. After harvesting the cells, they were stained with Muse® Oxidative Stress Kit (Luminex, IL, USA) following the manufacturer's instructions. The percentage of cells with oxidative stress was measured by flow cytometry analysis.

[4] = test system: MCF-7 cells; assay: Mitochondrial membrane potential analysis (Muse MitoPotential flow cytometry); conditions: 24 hours
Experimental: Muse MitoPotential Flow Cytometry Kit (Luminex, IL, USA) was used for measuring mitochondrial membrane potential (MMP). MCF-7 cells were seeded (15000 cells per well) in a 6-wells culture plate. […] A negative control (DMSO) was run in parallel. Finally, the cells were stained with Mito Potential reagents provided in the kit, following the manufacturer's instructions, and then analyzed by flow cytometry.

| Compound | Effect on intracellular ATP levels [1] | IC50 [2] | ROS generation ([3]; 1 μM) | ROS generation ([3]; 5 μM) | Mitochondrial membrane depolarization ([4]; 1.0 μM) | Mitochondrial membrane depolarization ([4]; 5.0 μM) |
| --- | --- | --- | --- | --- | --- | --- |
| C#Cc1cccc(Nc2ncnc3cc(OCCOC)c(OCCOC)cc23)c1 [erlotinib] | depleted | – | – | – | – | – |
| CNC(=O)c1cc(Oc2ccc(NC(=O)Nc3ccc(Cl)c(C(F)(F)F)c3)cc2)ccn1 [sorafenib] | – | 4.45 µM | 73.76% | 122.11% | 2.7% | 12.0% |
